Results taken from patent US20110039721A1, “METHOD FOR PREDICTION ABOUT CARCINOGENICITY OF SUBSTANCE IN RODENT” (Chemicals Evaluation and Research Institute, priority 2007, published 2011).

Legend:
liver = conditions: classification of the substance (Cr+/Cr−); cited from earlier work
[1] = classification of the substance (M+/M−); cited from earlier work
[2] = test system: mRNA expressed from the genes (A) to (D) in rat liver; assay: Behavior of genes (mRNA expression level, oligo-DNA microarray) in rat liver after 28-day oral administration; type: in vivo; conditions: for Behavior of gene caused by administration of chemical substance, Gene No. 4846 / Behavior of gene caused by administration of chemical substance, Gene No. 2026 / Behavior of gene caused by administration of chemical substance, Gene No. 4218 / Behavior of gene caused by administration of chemical substance, Gene No. 6182 / Behavior of gene caused by administration of chemical substance, Gene No. 5600: gene group (A); for Behavior of gene caused by administration of chemical substance, Gene No. 4846: Unigene No. Rn.144554; for Behavior of gene caused by administration of chemical substance, Gene No. 2026 / Behavior of gene caused by administration of chemical substance, Gene No. 4218: Unigene No. Rn.167075; for Behavior of gene caused by administration of chemical substance, Gene No. 6182: Unigene No. Rn.5834; for Behavior of gene caused by administration of chemical substance, Gene No. 5600: Unigene No. Rn.9836; for Behavior of gene caused by administration of chemical substance, Gene No. 1494 / Behavior of gene caused by administration of chemical substance, Gene No. 2045 / Behavior of gene caused by administration of chemical substance, Gene No. 2203: gene group (B); for Behavior of gene caused by administration of chemical substance, Gene No. 1494: Unigene No. Rn.1430; for Behavior of gene caused by administration of chemical substance, Gene No. 2045: Unigene No. Rn.19329; for Behavior of gene caused by administration of chemical substance, Gene No. 2203: Unigene No. Rn.21240; for Behavior of gene caused by administration of chemical substance, Gene No. 533 / Behavior of gene caused by administration of chemical substance, Gene No. 725 / Behavior of gene caused by administration of chemical substance, Gene No. 1163 / Behavior of gene caused by administration of chemical substance, Gene No. 4973 / Behavior of gene caused by administration of chemical substance, Gene No. 4095 / Behavior of gene caused by administration of chemical substance, Gene No. 1334 / Behavior of gene caused by administration of chemical substance, Gene No. 6620 / Behavior of gene caused by administration of chemical substance, Gene No. 6303 / Behavior of gene caused by administration of chemical substance, Gene No. 5878 / Behavior of gene caused by administration of chemical substance, Gene No. 1131 / Behavior of gene caused by administration of chemical substance, Gene No. 1562 / Behavior of gene caused by administration of chemical substance, Gene No. 1741 / Behavior of gene caused by administration of chemical substance, Gene No. 893 / Behavior of gene caused by administration of chemical substance, Gene No. 6026 / Behavior of gene caused by administration of chemical substance, Gene No. 154 / Behavior of gene caused by administration of chemical substance, Gene No. 1993 / Behavior of gene caused by administration of chemical substance, Gene No. 813 / Behavior of gene caused by administration of chemical substance, Gene No. 2494 / Behavior of gene caused by administration of chemical substance, Gene No. 2546 / Behavior of gene caused by administration of chemical substance, Gene No. 3776 / Behavior of gene caused by administration of chemical substance, Gene No. 3929 / Behavior of gene caused by administration of chemical substance, Gene No. 1119 / Behavior of gene caused by administration of chemical substance, Gene No. 6742 / Behavior of gene caused by administration of chemical substance, Gene No. 5634: gene group (C); for Behavior of gene caused by administration of chemical substance, Gene No. 533: Unigene No. Rn.106184; for Behavior of gene caused by administration of chemical substance, Gene No. 725: Unigene No. Rn.108075; for Behavior of gene caused by administration of chemical substance, Gene No. 1163: Unigene No. Rn.11766; for Behavior of gene caused by administration of chemical substance, Gene No. 4973: Unigene No. Rn.118529; for Behavior of gene caused by administration of chemical substance, Gene No. 4095: Unigene No. Rn.119024; for Behavior of gene caused by administration of chemical substance, Gene No. 1334 / Behavior of gene caused by administration of chemical substance, Gene No. 6620: Unigene No. Rn.120914; for Behavior of gene caused by administration of chemical substance, Gene No. 6303: Unigene No. Rn.123063; for Behavior of gene caused by administration of chemical substance, Gene No. 5878: Unigene No. Rn.143213; for Behavior of gene caused by administration of chemical substance, Gene No. 1131: Unigene No. Rn.144946; for Behavior of gene caused by administration of chemical substance, Gene No. 1562: Unigene No. Rn.14744; for Behavior of gene caused by administration of chemical substance, Gene No. 1741: Unigene No. Rn.1647; for Behavior of gene caused by administration of chemical substance, Gene No. 893: Unigene No. Rn.164817; for Behavior of gene caused by administration of chemical substance, Gene No. 6026: Unigene No. Rn.167685; for Behavior of gene caused by administration of chemical substance, Gene No. 154: Unigene No. Rn.185941; for Behavior of gene caused by administration of chemical substance, Gene No. 1993: Unigene No. Rn.18728; for Behavior of gene caused by administration of chemical substance, Gene No. 813: Unigene No. Rn.201760; for Behavior of gene caused by administration of chemical substance, Gene No. 2494: Unigene No. Rn.23969; for Behavior of gene caused by administration of chemical substance, Gene No. 2546: Unigene No. Rn.24561; for Behavior of gene caused by administration of chemical substance, Gene No. 3776: Unigene No. Rn.43232; for Behavior of gene caused by administration of chemical substance, Gene No. 3929: Unigene No. Rn.4620; for Behavior of gene caused by administration of chemical substance, Gene No. 1119: Unigene No. Rn.9757; for Behavior of gene caused by administration of chemical substance, Gene No. 6742: Unigene No. Rn.9779; for Behavior of gene caused by administration of chemical substance, Gene No. 5634: Unigene No. Rn.9862; for Behavior of gene caused by administration of chemical substance, Gene No. 5726: gene group (D), Unigene No. Rn.9939
How it was run: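 Liver mRNA measured by oligo-DNA microarray after 28 days of once-daily oral gavage in 5-week-old male F344 rats (n=4 per group), with vehicle controls given equal solvent volume. Significance threshold: 1.5-fold up or down versus control, with changes opposite in direction to other carcinogens counted as not significant.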

rodent = conditions: classification of the substance (C+/C−); cited from earlier work

SMILES	Liver carcinogenicity (liver)	Mutagenicity by Ames test [1]	Behavior of gene caused by administration of chemical substance, Gene No. 4846 [2]	Behavior of gene caused by administration of chemical substance, Gene No. 2026 [2]	Behavior of gene caused by administration of chemical substance, Gene No. 4218 [2]	Behavior of gene caused by administration of chemical substance, Gene No. 6182 [2]	Behavior of gene caused by administration of chemical substance, Gene No. 5600 [2]	Behavior of gene caused by administration of chemical substance, Gene No. 1494 [2]	Behavior of gene caused by administration of chemical substance, Gene No. 2045 [2]	Behavior of gene caused by administration of chemical substance, Gene No. 2203 [2]	Behavior of gene caused by administration of chemical substance, Gene No. 533 [2]	Behavior of gene caused by administration of chemical substance, Gene No. 725 [2]	Behavior of gene caused by administration of chemical substance, Gene No. 1163 [2]	Behavior of gene caused by administration of chemical substance, Gene No. 4973 [2]	Behavior of gene caused by administration of chemical substance, Gene No. 4095 [2]	Behavior of gene caused by administration of chemical substance, Gene No. 1334 [2]	Behavior of gene caused by administration of chemical substance, Gene No. 6620 [2]	Behavior of gene caused by administration of chemical substance, Gene No. 6303 [2]	Behavior of gene caused by administration of chemical substance, Gene No. 5878 [2]	Behavior of gene caused by administration of chemical substance, Gene No. 1131 [2]	also measured
O=C([O-])c1ccccc1.[Na+] [TS084, Sodium benzoate]	Cr−	M−	−	−	−	+	−	+	−	−	+	−	−	+	−	−	−	−	−	−	Behavior of gene caused by administration of chemical substance, Gene No. 1562 [2]: −; Behavior of gene caused by administration of chemical substance, Gene No. 1741 [2]: −; Behavior of gene caused by administration of chemical substance, Gene No. 893 [2]: −; Behavior of gene caused by administration of chemical substance, Gene No. 6026 [2]: −; Behavior of gene caused by administration of chemical substance, Gene No. 154 [2]: −; Behavior of gene caused by administration of chemical substance, Gene No. 1993 [2]: −; Behavior of gene caused by administration of chemical substance, Gene No. 813 [2]: −; Behavior of gene caused by administration of chemical substance, Gene No. 2494 [2]: −; Behavior of gene caused by administration of chemical substance, Gene No. 2546 [2]: −; Behavior of gene caused by administration of chemical substance, Gene No. 3776 [2]: −; Behavior of gene caused by administration of chemical substance, Gene No. 3929 [2]: −; Behavior of gene caused by administration of chemical substance, Gene No. 1119 [2]: −; Behavior of gene caused by administration of chemical substance, Gene No. 6742 [2]: +; Behavior of gene caused by administration of chemical substance, Gene No. 5634 [2]: −; Behavior of gene caused by administration of chemical substance, Gene No. 5726 [2]: −; Carcinogenicity (rodent): C−
Cl.ClCc1ccccn1 [TS033, 2-Chloromethylpyridine HCl]	Cr−	M+	−	−	−	−	−	−	−	−	−	−	−	−	−	−	−	−	−	−	Behavior of gene caused by administration of chemical substance, Gene No. 1562 [2]: −; Behavior of gene caused by administration of chemical substance, Gene No. 1741 [2]: −; Behavior of gene caused by administration of chemical substance, Gene No. 893 [2]: −; Behavior of gene caused by administration of chemical substance, Gene No. 6026 [2]: −; Behavior of gene caused by administration of chemical substance, Gene No. 154 [2]: −; Behavior of gene caused by administration of chemical substance, Gene No. 1993 [2]: −; Behavior of gene caused by administration of chemical substance, Gene No. 813 [2]: −; Behavior of gene caused by administration of chemical substance, Gene No. 2494 [2]: −; Behavior of gene caused by administration of chemical substance, Gene No. 2546 [2]: −; Behavior of gene caused by administration of chemical substance, Gene No. 3776 [2]: −; Behavior of gene caused by administration of chemical substance, Gene No. 3929 [2]: −; Behavior of gene caused by administration of chemical substance, Gene No. 1119 [2]: −; Behavior of gene caused by administration of chemical substance, Gene No. 6742 [2]: −; Behavior of gene caused by administration of chemical substance, Gene No. 5634 [2]: −; Behavior of gene caused by administration of chemical substance, Gene No. 5726 [2]: −; Carcinogenicity (rodent): C−
